Laboratory results as given in the kinase profiling compilation of Christmann-Franck et al. (2016).

What was measured:
Test in all cases: radiometric filter-binding kinase assay, Kinase HotSpot
Conditions in all cases: compound 0.5 µM; ATP 10 µM
[1] = target: DDR2 (human) (UniProt Q16832)
[2] = target: CDC42BPB (human) (UniProt Q9Y5S2)
[3] = target: SYK (human) (UniProt P43405)
[4] = target: RPS6KA4 KD2 (human) (UniProt O75676)
[5] = target: AURKC (human) (UniProt Q9UQB9)
[6] = target: LRRK2 (human) (UniProt Q5S007)
[7] = target: MAPK12 (human) (UniProt P53778)
[8] = target: CSNK1E (human) (UniProt P49674)
[9] = target: FLT1 (human) (UniProt P17948)
[10] = target: NLK (human) (UniProt Q9UBE8)
[11] = target: ACVR1 (human) (UniProt Q04771)
[12] = target: TYRO3 (human) (UniProt Q06418)
[13] = target: TSSK2 (human) (UniProt Q96PF2)
[14] = target: PRKCZ (human) (UniProt Q05513)
[15] = target: PRKCB2 (human) (UniProt P05771)
[16] = target: MAPKAPK3 (human) (UniProt Q16644)
[17] = target: SRC (human) (UniProt P12931)
[18] = target: MAPK8 (human) (UniProt P45983)
[19] = target: WNK3 (human) (UniProt Q9BYP7)
[20] = target: GRK7 (human) (UniProt Q8WTQ7)
[21] = target: MAPK13 (human) (UniProt O15264)
[22] = target: WNK2 (human) (UniProt Q9Y3S1)
[23] = target: ERBB4 (human) (UniProt Q15303)
[24] = target: FER (human) (UniProt P16591)
[25] = target: TTK (human) (UniProt P33981)
[26] = target: FGFR1 (human) (UniProt P11362)
[27] = target: MAP3K7 TAB1 (human) (UniProt O43318+Q15750)
[28] = target: PDGFRB (human) (UniProt P09619)
[29] = target: DAPK2 (human) (UniProt Q9UIK4)
[30] = target: LIMK1 (human) (UniProt P53667)
[31] = target: CDK4 CCND3 (human) (UniProt P30281+P11802)
[32] = target: CDK6 CCND1 (human) (UniProt Q00534+P24385)
[33] = target: RPS6KA5 KD2 (human) (UniProt O75582)
[34] = target: CDK4 CCND1 (human) (UniProt P24385+P11802)
[35] = target: EPHA4 (human) (UniProt P54764)
[36] = target: MST4 (human) (UniProt Q9P289)
[37] = target: MAP4K2 (human) (UniProt Q12851)
[38] = target: AKT2 (human) (UniProt P31751)
[39] = target: PKN2 (human) (UniProt Q16513)
[40] = target: PLK3 (human) (UniProt Q9H4B4)
[41] = target: PIM2 (human) (UniProt Q9P1W9)
[42] = target: CLK3 (human) (UniProt P49761)

ERBB4 (human), sequence (Q15303 whole entry, looked up): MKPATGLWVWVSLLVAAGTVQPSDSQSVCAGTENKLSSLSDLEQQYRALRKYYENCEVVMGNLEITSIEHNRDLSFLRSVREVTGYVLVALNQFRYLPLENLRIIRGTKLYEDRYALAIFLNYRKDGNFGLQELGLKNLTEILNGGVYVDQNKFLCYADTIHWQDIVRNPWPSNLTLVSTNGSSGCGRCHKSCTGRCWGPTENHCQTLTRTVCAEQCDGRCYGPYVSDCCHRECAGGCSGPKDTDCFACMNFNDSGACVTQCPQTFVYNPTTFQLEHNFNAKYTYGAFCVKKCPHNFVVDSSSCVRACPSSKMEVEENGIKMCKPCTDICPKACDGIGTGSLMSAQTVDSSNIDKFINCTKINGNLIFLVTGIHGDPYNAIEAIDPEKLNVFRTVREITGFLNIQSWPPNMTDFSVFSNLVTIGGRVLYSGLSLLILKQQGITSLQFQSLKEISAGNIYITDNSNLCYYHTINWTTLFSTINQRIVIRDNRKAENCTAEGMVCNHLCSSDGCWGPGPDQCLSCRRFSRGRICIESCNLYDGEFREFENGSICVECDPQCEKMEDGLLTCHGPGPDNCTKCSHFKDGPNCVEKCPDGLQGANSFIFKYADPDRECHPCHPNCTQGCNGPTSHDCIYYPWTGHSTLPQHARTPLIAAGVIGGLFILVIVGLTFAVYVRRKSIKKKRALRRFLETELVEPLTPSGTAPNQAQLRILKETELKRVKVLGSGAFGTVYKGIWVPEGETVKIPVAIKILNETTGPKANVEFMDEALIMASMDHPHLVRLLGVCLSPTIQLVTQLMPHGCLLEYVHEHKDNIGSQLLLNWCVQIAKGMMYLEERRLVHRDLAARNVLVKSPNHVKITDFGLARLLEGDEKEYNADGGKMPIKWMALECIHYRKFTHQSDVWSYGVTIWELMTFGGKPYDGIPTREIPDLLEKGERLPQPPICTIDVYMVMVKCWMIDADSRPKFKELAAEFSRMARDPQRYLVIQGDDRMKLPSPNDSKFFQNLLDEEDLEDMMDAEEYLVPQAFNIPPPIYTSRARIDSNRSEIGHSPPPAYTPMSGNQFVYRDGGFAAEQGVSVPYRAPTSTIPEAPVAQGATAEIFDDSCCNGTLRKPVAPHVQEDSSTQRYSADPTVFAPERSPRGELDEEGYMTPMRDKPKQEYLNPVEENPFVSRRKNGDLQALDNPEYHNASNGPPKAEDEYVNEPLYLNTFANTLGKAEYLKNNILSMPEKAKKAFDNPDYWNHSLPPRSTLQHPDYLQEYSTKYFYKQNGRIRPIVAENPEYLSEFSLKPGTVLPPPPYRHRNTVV
CDK6 CCND1 (human), sequence (P24385 whole entry, looked up): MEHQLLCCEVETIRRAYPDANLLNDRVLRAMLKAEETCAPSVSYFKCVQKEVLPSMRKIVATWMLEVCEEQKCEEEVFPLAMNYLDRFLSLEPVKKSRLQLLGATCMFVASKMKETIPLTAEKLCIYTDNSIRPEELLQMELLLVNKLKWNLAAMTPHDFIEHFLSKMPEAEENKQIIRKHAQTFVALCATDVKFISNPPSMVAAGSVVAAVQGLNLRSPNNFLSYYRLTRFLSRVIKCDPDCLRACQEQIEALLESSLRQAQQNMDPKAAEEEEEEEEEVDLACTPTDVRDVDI
CDK6 CCND1 (human), sequence (Q00534 whole entry, looked up): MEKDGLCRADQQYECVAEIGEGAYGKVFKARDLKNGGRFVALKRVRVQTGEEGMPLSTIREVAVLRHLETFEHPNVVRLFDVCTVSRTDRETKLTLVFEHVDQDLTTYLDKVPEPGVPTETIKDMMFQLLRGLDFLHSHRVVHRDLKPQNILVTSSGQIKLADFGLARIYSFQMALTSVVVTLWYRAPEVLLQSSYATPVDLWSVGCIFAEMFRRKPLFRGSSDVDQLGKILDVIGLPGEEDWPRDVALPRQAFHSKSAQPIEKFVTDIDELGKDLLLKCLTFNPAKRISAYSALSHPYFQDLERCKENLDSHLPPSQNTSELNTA
FLT1 (human), sequence (P17948 whole entry, looked up): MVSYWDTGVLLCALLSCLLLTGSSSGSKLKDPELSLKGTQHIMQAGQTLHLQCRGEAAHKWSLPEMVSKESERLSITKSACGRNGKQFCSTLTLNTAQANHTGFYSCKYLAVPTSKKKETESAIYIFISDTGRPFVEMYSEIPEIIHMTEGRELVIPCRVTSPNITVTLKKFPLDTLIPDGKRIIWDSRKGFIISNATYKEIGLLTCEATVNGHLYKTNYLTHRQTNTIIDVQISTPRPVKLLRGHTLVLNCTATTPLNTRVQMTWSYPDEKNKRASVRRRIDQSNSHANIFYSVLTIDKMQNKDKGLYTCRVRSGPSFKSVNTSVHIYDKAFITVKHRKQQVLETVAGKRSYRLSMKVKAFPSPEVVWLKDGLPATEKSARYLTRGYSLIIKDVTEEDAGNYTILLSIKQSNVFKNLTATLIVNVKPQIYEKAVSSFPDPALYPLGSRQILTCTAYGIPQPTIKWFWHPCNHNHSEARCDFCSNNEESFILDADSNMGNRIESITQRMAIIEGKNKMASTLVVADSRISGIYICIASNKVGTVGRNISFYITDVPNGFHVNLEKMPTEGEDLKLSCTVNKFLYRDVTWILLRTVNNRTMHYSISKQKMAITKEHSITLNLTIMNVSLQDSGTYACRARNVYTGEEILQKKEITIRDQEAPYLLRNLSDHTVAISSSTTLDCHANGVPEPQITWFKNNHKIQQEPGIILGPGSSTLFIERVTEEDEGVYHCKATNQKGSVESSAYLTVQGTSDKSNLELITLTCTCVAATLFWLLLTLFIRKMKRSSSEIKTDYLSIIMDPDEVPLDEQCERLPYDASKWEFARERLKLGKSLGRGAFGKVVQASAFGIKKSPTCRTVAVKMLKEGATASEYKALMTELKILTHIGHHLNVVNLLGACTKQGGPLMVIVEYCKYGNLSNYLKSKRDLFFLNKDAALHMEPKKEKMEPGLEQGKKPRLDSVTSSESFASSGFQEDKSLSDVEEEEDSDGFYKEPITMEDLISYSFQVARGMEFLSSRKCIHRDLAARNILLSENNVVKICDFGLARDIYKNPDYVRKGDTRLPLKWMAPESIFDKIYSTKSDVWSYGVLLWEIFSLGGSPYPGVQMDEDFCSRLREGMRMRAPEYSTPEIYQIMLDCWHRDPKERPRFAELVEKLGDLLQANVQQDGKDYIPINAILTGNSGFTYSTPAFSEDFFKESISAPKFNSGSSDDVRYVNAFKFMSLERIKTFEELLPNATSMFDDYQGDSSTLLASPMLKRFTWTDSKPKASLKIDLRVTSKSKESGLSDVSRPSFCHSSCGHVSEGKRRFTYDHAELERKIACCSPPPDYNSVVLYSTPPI
TYRO3 (human), sequence (Q06418 whole entry, looked up): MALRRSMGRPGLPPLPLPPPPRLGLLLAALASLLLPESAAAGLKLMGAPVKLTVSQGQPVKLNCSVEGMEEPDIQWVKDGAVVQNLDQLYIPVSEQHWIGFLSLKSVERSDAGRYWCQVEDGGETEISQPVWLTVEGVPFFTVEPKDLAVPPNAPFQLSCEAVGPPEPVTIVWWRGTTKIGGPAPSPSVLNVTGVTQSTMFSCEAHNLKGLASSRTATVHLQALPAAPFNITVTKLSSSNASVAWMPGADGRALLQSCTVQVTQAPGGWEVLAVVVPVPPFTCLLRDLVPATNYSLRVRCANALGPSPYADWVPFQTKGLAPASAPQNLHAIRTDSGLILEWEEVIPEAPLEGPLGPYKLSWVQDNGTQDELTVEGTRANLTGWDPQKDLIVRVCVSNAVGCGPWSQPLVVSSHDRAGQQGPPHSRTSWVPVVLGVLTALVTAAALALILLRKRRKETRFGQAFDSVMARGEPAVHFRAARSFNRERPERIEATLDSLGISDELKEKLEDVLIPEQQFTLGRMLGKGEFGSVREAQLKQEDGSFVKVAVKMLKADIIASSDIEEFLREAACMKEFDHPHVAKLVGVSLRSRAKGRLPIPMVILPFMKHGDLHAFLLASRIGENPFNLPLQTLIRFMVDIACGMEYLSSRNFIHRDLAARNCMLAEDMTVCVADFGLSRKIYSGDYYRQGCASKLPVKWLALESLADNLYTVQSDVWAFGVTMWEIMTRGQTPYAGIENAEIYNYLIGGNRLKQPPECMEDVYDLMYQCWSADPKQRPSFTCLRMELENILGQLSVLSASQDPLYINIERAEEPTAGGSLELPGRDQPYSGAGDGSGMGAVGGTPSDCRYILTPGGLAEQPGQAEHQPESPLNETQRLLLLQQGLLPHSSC
AKT2 (human), sequence (P31751 whole entry, looked up): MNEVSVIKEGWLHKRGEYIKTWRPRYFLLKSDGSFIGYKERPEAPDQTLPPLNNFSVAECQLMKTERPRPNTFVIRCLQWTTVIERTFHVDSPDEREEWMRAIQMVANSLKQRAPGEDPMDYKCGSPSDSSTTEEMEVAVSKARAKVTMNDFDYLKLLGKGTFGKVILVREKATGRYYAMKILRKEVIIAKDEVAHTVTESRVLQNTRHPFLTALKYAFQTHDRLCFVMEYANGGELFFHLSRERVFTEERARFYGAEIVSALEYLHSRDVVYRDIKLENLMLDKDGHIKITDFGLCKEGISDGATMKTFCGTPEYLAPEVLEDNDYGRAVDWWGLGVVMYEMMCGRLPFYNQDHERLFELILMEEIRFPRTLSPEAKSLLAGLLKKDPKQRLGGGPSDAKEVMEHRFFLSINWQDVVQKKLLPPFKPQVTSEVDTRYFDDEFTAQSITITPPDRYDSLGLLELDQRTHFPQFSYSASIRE
MAPKAPK3 (human), sequence (Q16644 whole entry, looked up): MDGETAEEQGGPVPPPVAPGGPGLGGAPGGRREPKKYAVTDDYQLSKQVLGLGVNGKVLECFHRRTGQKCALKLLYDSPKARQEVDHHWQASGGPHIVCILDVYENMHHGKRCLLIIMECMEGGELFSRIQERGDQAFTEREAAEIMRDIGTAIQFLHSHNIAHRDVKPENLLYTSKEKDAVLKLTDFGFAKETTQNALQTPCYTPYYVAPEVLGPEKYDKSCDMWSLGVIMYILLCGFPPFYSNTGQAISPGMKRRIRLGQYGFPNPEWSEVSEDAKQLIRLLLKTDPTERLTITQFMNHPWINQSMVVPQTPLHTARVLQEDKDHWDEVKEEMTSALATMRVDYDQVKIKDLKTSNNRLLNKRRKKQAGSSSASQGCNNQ

For N#CCCc1ccc2c(c1)-c1[nH]c3ccc([N+](=O)[O-])cc3c1CC(=O)N2, the residual activity [1] was 105%, the residual activity [2] was 54.1% and the residual activity [3] was 58%. It also gave a residual activity [4] of 85.8%, a residual activity [5] of 83.6% and a residual activity [6] of 73.8%. It also gave a residual activity [7] of 98.9%, a residual activity [8] of 91.4% and a residual activity [9] of 99.7%. The residual activity [10] was 89.7%, the residual activity [11] was 58.8% and the residual activity [12] was 94.8%. The residual activity [13] was 78.7%, the residual activity [14] was 83.4% and the residual activity [15] was 76.3%. The residual activity [16] was 96.8%, the residual activity [17] was 30.8% and the residual activity [18] was 93.1%. It also gave a residual activity [19] of 96.5%, a residual activity [20] of 97.7% and a residual activity [21] of 98.2%. It also gave a residual activity [22] of 112%, a residual activity [23] of 91.8% and a residual activity [24] of 72.7%. For the same compound, the residual activity [25] was 71.7%, the residual activity [26] was 91.9% and the residual activity [27] was 38.1%. The residual activity [28] was 83.9%, the residual activity [29] was 96.5% and the residual activity [30] was 99.9%. The residual activity [31] was 25.9%, the residual activity [32] was 6.79% and the residual activity [33] was 94.2%. For the same compound, the residual activity [34] was 11.8%, the residual activity [35] was 85.2% and the residual activity [36] was 65.1%. It also gave a residual activity [37] of 14%, a residual activity [38] of 100% and a residual activity [39] of 77.9%. For the same compound, the residual activity [40] was 99.7%, the residual activity [41] was 104% and the residual activity [42] was 108%.

Compound c1ccc(-c2cnc(Nc3ccc(OCCN4CCCC4)cc3)s2)cc1 has a residual activity [1] of 86.6%, a residual activity [2] of 96.7% and a residual activity [3] of 89.2%. For the same compound, the residual activity [4] was 96.1%, the residual activity [5] was 94.9% and the residual activity [6] was 95.8%. It also gave a residual activity [7] of 93.6%, a residual activity [8] of 81.2% and a residual activity [9] of 74.5%. The residual activity [10] was 89.7%, the residual activity [11] was 164% and the residual activity [12] was 90.9%. For the same compound, the residual activity [13] was 89%, the residual activity [14] was 96.3% and the residual activity [15] was 104%. It also gave a residual activity [16] of 97.6%, a residual activity [17] of 75.3% and a residual activity [18] of 92.4%. For the same compound, the residual activity [19] was 99%, the residual activity [20] was 90.2% and the residual activity [21] was 104%. The residual activity [22] was 119%, the residual activity [23] was 101% and the residual activity [24] was 90%. It also gave a residual activity [25] of 102%, a residual activity [26] of 75.4% and a residual activity [27] of 102%. The residual activity [28] was 28.5%, the residual activity [29] was 90.3% and the residual activity [30] was 66.9%. It also gave a residual activity [31] of 84.9%, a residual activity [32] of 40.3% and a residual activity [33] of 104%. For the same compound, the residual activity [34] was 61.2%, the residual activity [35] was 101% and the residual activity [36] was 101%. It also gave a residual activity [37] of 113%, a residual activity [38] of 92.4% and a residual activity [39] of 97%. The residual activity [40] was 98%, the residual activity [41] was 108% and the residual activity [42] was 94.3%.
